Results taken from patent US6589914B2, “Dihalopropene compounds, insecticidal/acaridcidal agents containing same, and intermediates for their production” (Sumitomo Chemical Company, Limited, priority 1994, dated 2003).
Like-named read-outs stand apart in the source and are kept apart here.

Assays:
Spodoptera litura = test: Insecticidal test against Spodoptera litura (treated artificial diet); type: in vivo; conditions: 144 h, active ingredient at 500 ppm, 2 ml in 13 g artificial diet, fourth-instar larvae, after 6 days
Experimental: A 200-fold dilution containing an active ingredient at 500 ppm, which had been prepared by diluting with water an emulsifiable concentrate of the test compound obtained according to Formulation Example 1, was absorbed at a volume of 2 ml in 13 g of an artificial diet for Spodoptera litura, which had been prepared in a polyethylene cup having a diameter of 11 cm. Ten fourth-instar larvae of Spodoptera litura were set free in the cup. After 6 days, the survival of larvae was examined to determine the mortality. The test was conducted in duplicate.

Tetranychus urticae Koch = test: Test against Tetranychus urticae Koch (spray and soil drench on potted bean); type: in vivo; conditions: active ingredient at 500 ppm, 15 ml sprayed per pot plus 2 ml soil drench, after 8 days
Experimental: Ten female adults of Tetranychus urticae Koch per one leaf were allowed to parasitize to a potting bean at the primary leaf stage harvested for 7 days after seeding, and these pots were placed in a thermostated room at 25° C. After 6 days, a chemical solution containing an active ingredient at 500 ppm, which had been prepared by diluting with water an emulsifiable concentrate of the test compound obtained according to Formulation Example 1, was sprayed at a volume of 15 ml over each pot on a turntable. At the same time, 2 ml of the same solution was drenched in the soil. After 8 days, the degree of damage on the respective plants caused by Tetranychus urticae Koch was examined. The effects were determined according to the following criteria:
−: Damage is scarcely observed.
+: Damage is slightly observed.
++: Damage is observed at the same level as in the non-treated field.

Heliothis virescens = test: Insecticidal test against Heliothis virescens (treated artificial diet); type: in vivo; conditions: 144 h
Experimental: A dilution containing an active ingredient at 100 ppm, which had been prepared by diluting with water an emulsifiable concentrate of the test compound obtained according to Formulation Example 1, was incorporated at a volume of 0.2 ml in an artificial diet. A second-instar larva of H. virescens was given the diet and bred in a plastic vessel. Ten insects were used by each treatment. After 6 days, the mortality was determined.

Plutella xylostella = test: Insecticidal test against Plutella xylostella (spray on potted cabbage); type: in vivo; conditions: 96 h
Experimental: A chemical solution containing an active ingredient at 50 ppm, which had been prepared by diluting an emulsifiable concentrate of the test compound obtained according to Formulation Example 1 with water containing spreading agent RINOU (Nihon Nouyaku K.K.) to a degree such that the spreading agent had been 1000-fold diluted, was sprayed at a volume 25 ml over each pot of a potting cabbage at the five leaf stage. The treated plants were air dried, on which ten third-instar larvae of Plutella xylostella were set free. After 4 days, the mortality was determined.

[1] = active ingredient at 50 ppm, 25 ml sprayed per pot of cabbage, third-instar larvae, after 4 days, read-out: mortality
[2] = active ingredient at 100 ppm, 0.2 ml in artificial diet, second-instar larva, after 6 days, read-out: mortality

Structure (SMILES)	melting point	degree of damage on the plants caused by Tetranychus urticae Koch (Tetranychus urticae Koch)	other results
ClC(Cl)=CCOc1cc(Cl)c(OCc2ccc(Cl)nc2)c(Cl)c1 [Compound 1, 3,5-Dichloro-4-(6-chloro-3-pyridylmethyloxy)-1-(3,3-dichloro-2-propenyloxy)benzene]	–	“−” or “+”	mortality at 500 ppm (Spodoptera litura): ≥ 80%
ClC(Cl)=CCOc1cc(Cl)c(OCc2ccc(Cl)nc2Cl)c(Cl)c1 [Compound 2, 3,5-Dichloro-4-(2,6-dichloro-3-pyridylmethyloxy)-1-(3,3-dichloro-2-propenyloxy)benzene]	–	–	mortality at 500 ppm (Spodoptera litura): ≥ 80%
ClC(Cl)=CCOc1cc(Cl)c(OCCc2cccs2)c(Cl)c1 [Compound 10, 3,5-Dichloro-4-(2-(2-thienyl)ethoxy)-1-(3,3-dichloro-2-propenyloxy)benzene]	–	“−” or “+”	–
CN1C=CSC1CCOc1c(Cl)cc(OCC=C(Cl)Cl)cc1Cl (stereo not shown) [Compound 11, 3,5-Dichloro-4-(2-(3-methylthiazol-2-yl)ethoxy)-1-(3,3-dichloro-2-propenyloxy)benzene]	30.4 °C	–	–
ClC(Cl)=CCOc1cc(Cl)c(OCCc2ccsc2)c(Cl)c1 [Compound 14, 3,5-Dichloro-4-(2-(3-thienyl)ethoxy)-1-(3,3-dichloro-2-propenyloxy)benzene]	–	–	mortality at 500 ppm (Spodoptera litura): ≥ 80%
ClC(Cl)=CCOc1cc(Cl)c(OCCCc2ccncc2)c(Cl)c1 [Compound 15, 3,5-Dichloro-4-(3-(4-pyridyl)propyloxy)-1-(3,3-dichloro-2-propenyloxy)benzene]	–	“−” or “+”	–
O=C(OCCCOc1c(Cl)cc(OCC=C(Cl)Cl)cc1Cl)c1cnc2ccccc2c1 [Compound 28, 3-(2,6-Dichloro-4-(3,3-dichloro-2-propenyloxy)phenoxy)propyl 3-quinolinate]	92.3 °C	–	–
ClC(Cl)=CCOc1cc(Cl)c(OCCCSc2ccccn2)c(Cl)c1 [Compound 30, 3,5-Dichloro-4-(3-(2-pyridylthio)propyloxy)-1-(3,3-dichloro-2-propenyloxy)benzene]	–	“−” or “+”	–
CC(C)(COc1c(Cl)cc(OCC=C(Cl)Cl)cc1Cl)Oc1cccc(Cl)n1 [Compound 33, 3,5-Dichloro-4-(2-methyl-2-(2-(6-chloro)pyridyloxy)propyloxy)-1-(3,3-dichloro-2-propenyloxy)benzene]	–	“−” or “+”	–
FC(F)(F)c1ccc(OCCCOc2c(Cl)cc(OCC=C(Cl)Cl)cc2Cl)nc1 [Compound 36, 3,5-Dichloro-4-(3-(5-trifluoromethyl-2-pyridyloxy)propyloxy)-1-(3,3-dichloro-2-propenyloxy)benzene]	–	–	mortality at 100 ppm (Heliothis virescens): ≥ 80%; mortality at 50 ppm (Plutella xylostella): ≥ 80%
FC(F)(F)c1cnc(OCCCOc2c(Cl)cc(OCC=C(Cl)Cl)cc2Cl)c(Cl)c1 [Compound 37, 3,5-Dichloro-4-(3-(3-chloro-5-trifluoromethyl-2-pyridyloxy)propyloxy)-1-(3,3-dichloro-2-propenyloxy)benzene]	–	–	mortality at 50 ppm (Plutella xylostella; [1]): ≥ 80%
FC(F)(F)c1ccc(OCCCCOc2c(Cl)cc(OCC=C(Cl)Cl)cc2Cl)nc1 [Compound 42, 3,5-Dichloro-4-(4-(5-trifluoromethyl-2-pyridyloxy)butyloxy)-1-(3,3-dichloro-2-propenyloxy)benzene]	–	–	mortality at 100 ppm (Heliothis virescens; [2]): ≥ 80%; mortality at 50 ppm (Plutella xylostella; [1]): ≥ 80%
FC(F)(F)c1ccc(OCCCCCOc2c(Cl)cc(OCC=C(Cl)Cl)cc2Cl)nc1 [Compound 43, 3,5-Dichloro-4-(5-(5-trifluoromethyl-2-pyridyloxy)pentyloxy)-1-(3,3-dichloro-2-propenyloxy)benzene]	–	–	mortality at 100 ppm (Heliothis virescens; [2]): ≥ 80%
ClC(Cl)=CCOc1cc(Cl)c(NCCCOc2ccccn2)c(Cl)c1 [Compound 71, 3,5-Dichloro-4-(3-(2-pyridyloxy)propylamino)-1-(3,3-dichloro-2-propenyloxy)benzene]	76.2 °C	–	–

The next lines start with results.

melting point	Structure (SMILES)	degree of damage on the plants caused by Tetranychus urticae Koch (Tetranychus urticae Koch)	other results
48.2 °C	ClC(Cl)=CCOc1cc(Cl)c(OCc2ccccn2)c(Cl)c1 [Compound 5, 3,5-Dichloro-4-(2-pyridylmethyloxy)-1-(3,3-dichloro-2-propenyloxy)benzene]	–	–
44.6 °C	ClC(Cl)=CCOc1cc(Cl)c(OCc2cccs2)c(Cl)c1 [Compound 6, 3,5-Dichloro-4-(2-thienylmethyloxy)-1-(3,3-dichloro-2-propenyloxy)benzene]	–	–
46 °C	ClC(Cl)=CCOc1cc(Cl)c(OCc2ccco2)c(Cl)c1 [Compound 7, 3,5-Dichloro-4-(2-furanylmethyloxy)-1-(3,3-dichloro-2-propenyloxy)benzene]	“−” or “+”	–
105.9 °C	ClC(Cl)=CCOc1cc(Cl)c(OCc2cccnc2)c(Cl)c1 [Compound 8, 3,5-Dichloro-4-(3-pyridylmethyloxy)-1-(3,3-dichloro-2-propenyloxy)benzene]	–	–
74 °C	ClC(Cl)=CCOc1cc(Cl)c(OCc2ccncc2)c(Cl)c1 [Compound 9, 3,5-Dichloro-4-(4-pyridylmethyloxy)-1-(3,3-dichloro-2-propenyloxy)benzene]	–	–
74.7 °C	ClC(Cl)=CCOc1cc(Cl)c(OCCSc2ccncc2)c(Cl)c1 [Compound 19, 3,5-Dichloro-4-(2-(4-pyridylthio)ethoxy)-1-(3,3-dichloro-2-propenyloxy)benzene]	–	–
48.3 °C	ClC(Cl)=CCOc1cc(Cl)c(OCCCc2cccnc2)c(Cl)c1 [Compound 20, 3,5-Dichloro-4-(3-(3-pyridyl)propyloxy)-1-(3,3-dichloro-2-propenyloxy)benzene]	–	–
61.2 °C	ClC(Cl)=CCOc1cc(Cl)c(OCCc2nc3ccccc3o2)c(Cl)c1 [Compound 32, 3,5-Dichloro-4-(2-(2-benzoxazolyl)ethoxy)-1-(3,3-dichloro-2-propenyloxy)benzene]	“−” or “+”	–
120.7 °C	ClC(Cl)=CCOc1cc(Cl)c(OCCCSc2nc3ccccc3[nH]2)c(Cl)c1 [Compound 39, 3,5-Dichloro-4-(3-(2-benzimidazolylthio)propyloxy)-1-(3,3-dichloro-2-propenyloxy)benzene]	–	–
